Results from article PMC11096368, “Transcriptomic signature, bioactivity and safety of a non-hepatotoxic analgesic generating AM404 in the midbrain PAG region” (Scientific Reports, 2024).
Values joined by “and” are separate entries in the source; they are usually repeats but may differ in a detail not shown here. Identical values can stand only once. Like-named read-outs stand apart in the source and are kept apart here.

Assay: Phase 1 single ascending dose (SAD) pharmacokinetics incl. food effect
Assay type: in vivo, human
Conditions: for Tmax (h) / Tmax: N 6; for AUC(0-t) / AUC(0-inf) / Cmax / half-life / Tmax: human, plasma; for AUC(0-t) / AUC(0-inf) / Cmax / half-life: oral; for Tmax: po
Procedure: A randomized, double-blind, placebo-controlled Phase 1 trial (ClinicalTrials.gov identifier: NCT05484414) (02/08/2022) was conducted to assess the safety, tolerability, food effect, pharmacokinetics (PK), and pharmacodynamics (PD) of single and multiple ascending doses of SRP-001 (Quotient Sciences, Miami FL USA; Fig. 3h - k and Methods). The trial was conducted in accordance with the International Council for Harmonisation of Technical Requirements for Pharmaceuticals for Human Use (ICH), Guideline for GCP: Consolidated Guidance (E6), attained Institutional Review Board approval, and all applicable regulatory requirements for Phase 1, First in Human clinical trials. Safety measurements and plasma samples to determine PK parameters were collected throughout the study for all subjects and reviewed by the Safety Review Committee. PK stopping criteria were established to assure that systemic exposure to SRP-001 was less than or equal to the systemic exposure achieved at the NOAEL doses in the 28-day repeat-dose toxicology studies in the rat and dog. The trial’s Safety Advisory Committee has approved the publication of the Phase 1 results.
SRP-001 was administered as an oral nanosuspension to 56 healthy volunteers across five Single Ascending Dose (SAD) and two Multiple Ascending Dose (MAD) cohorts, with 42 subjects receiving SRP-001 and 14 receiving a placebo.
A two-part randomized, double-blind, placebo-controlled Phase 1 trial was conducted to assess the safety, tolerability, PK and PD of SRP-001 ascending doses (Quotient Sciences, Miami, FL, USA). The study was conducted in accordance with the International Council for Harmonisation of Technical Requirements for Pharmaceuticals for Human Use (ICH), Guideline for GCP: Consolidated Guidance (E6), and applicable regulatory requirements(s) including clinical research guidelines established by the Basic Principles defined in the U.S. 21 CFR Parts 50, 56, and 312 and the principles enunciated in the Declaration of Helsinki (revised version Fortaleza 2013). The clinical protocol and informed consent form were reviewed and approved by an Institutional Review Board (IRB; Advarra IRB, 6100 Merriweather Drive, Suite 600, Columbia, MD 21,044; Quotient Protocol No. SRP-101 and Quotient Sciences Study No. QSC205130; Quotient Sciences Miami, 3898 NW 7th Street, Miami, FL 33,126.). The study comprises a SAD (Part 1) assessment that includes a food effect assessment that contributes data to inform a subsequent MAD (Part 2) dose-ranging study. Safety measurements were collected throughout the study for all subjects. Blood samples were collected to determine the PK parameters of SRP-001 (ClinicalTrials.gov identifier: NCT05484414) (02/08/2022).
NHVs were dosed in the fasted state. The calorie/fat content of meals was not required to be controlled. Subjects were provided with a standardized menu. Subjects were provided with a light snack and then fasted from all food and drink (except water) for a minimum of 10 h on the day prior to dosing until approximately 4 h post-dose, at which time lunch was provided. An evening meal was provided at approximately 10 h post-dose/post-morning dose and an evening snack at approximately 14 h post-morning dose. Food effect was studied in the cohort receiving 900 mg SRP-001 in the fed state. A standard high-fat breakfast was given 30 min before dosing. On Day -1, these NHVs were provided with a light snack and fasted from all food and drink (except water) until the following morning, when they were provided with a standard high-fat breakfast. The breakfast had to be consumed over a maximum period of 25 min, with dosing occurring 30 min after the start of breakfast. Subjects were encouraged to eat their meal evenly over the 25 min period. It was acknowledged that some subjects took less time to eat, but dosing still occurred 30 min after the start of breakfast. Subjects had to consume at least 90% to be eligible for dosing. […]

[1] = 300 mg, Cohort 1, Regimen A, Fasted, geometric mean (geometric CV%)
[2] = 600 mg, Cohort 2, Regimen B, Fasted, geometric mean (geometric CV%)
[3] = 900 mg, Cohort 3, Regimen C, Fasted, geometric mean (geometric CV%)
[4] = 900 mg, Cohort 3, Regimen D, Fed, geometric mean (geometric CV%)
[5] = 2000 mg, Cohort 4, Regimen E, Fasted, geometric mean (geometric CV%)
[6] = relative bioavailability, Cohort 4, Regimen E, text b207 under 900 mg fed state

For `CCN(CC)C(=O)c1ccccc1S(=O)(=O)NCC(=O)Nc1ccc(O)cc1` [SRP-001, N,N-diethyl-2-[[2-(4-hydroxyanilino)-2-oxo-ethyl]sulfamoyl]benzamide], the “Geometric mean AUC(0–24) as share of the exposure limits defined in the protocol” value (2000 mg, fasted) was 31%, the “Geometric mean Cmax as share of the exposure limits defined in the protocol” value (2000 mg, fasted) was 34% and the “Dose proportionality of geometric mean Cmax and AUC(0-∞)” value (300 to 2000 mg) was “dose-proportional or super-proportional increase”. For the same compound, the “T1/2 (h)” value (Cohort 1, Regimen A, 300 mg, Fasted, geometric mean (geometric CV%)) was 2.38 (65.9) h, the “Tmax (h)” value (Cohort 2, Regimen B, 600 mg oral suspension, Fasted) was 1 (1.00–2.00) h and the “T1/2 (h)” value (Cohort 2, Regimen B, 600 mg, Fasted, geometric mean (geometric CV%)) was 5.04 (107.8) h. For the same compound, the “Tmax (h)” value (Cohort 3, Period 2: Regimen D, 900 mg oral suspension, Fed) was 1 (1.00–8.00) h, the “T1/2 (h)” value (Cohort 3, Regimen C, 900 mg, Fasted, geometric mean (geometric CV%)) was 3.26 (62.1) h and the “T1/2 (h)” value (Cohort 3, Regimen D, 900 mg, Fed, geometric mean (geometric CV%)) was 3.79 (74.5) h. For the same compound, the “Tmax (h)” value (Cohort 4, Regimen E, 2000 mg oral suspension, Fasted) was 1 (1.00–2.00) h, the “T1/2 (h)” value (Cohort 4, Regimen E, 2000 mg, Fasted, geometric mean (geometric CV%)) was 5.96 (65.9) h and the “Increase of geometric mean AUC(0–24)” value (dose from 300 to 600 mg) was 3.5 fold. For the same compound, the “Increase of geometric mean Cmax” value (dose from 300 to 600 mg) was 2.6 fold, the “Increase of geometric mean AUC(0–24)” value (dose from 600 to 900 mg) was 1.2 fold and the “Increase of geometric mean Cmax” value (dose from 600 to 900 mg) was 1.6 fold. For the same compound, the “Increase of geometric mean Cmax” value (dose from 900 to 2000 mg (2.2-fold increase in dose)) was 1.7 fold, the AUC(0-t) (300 mg, Cohort 1, Regimen A, 300 mg, Fasted, geometric mean (geometric CV%), read-out: AUC0-24) was 1620 ng·h/mL and the AUC(0-t) (300 mg, Cohort 1, Regimen A, 300 mg, Fasted, geometric mean (geometric CV%), read-out: AUC0-last) was 1320 ng·h/mL. It also gave an AUC(0-inf) [1] of 1630 ng·h/mL, a Cmax [1] of 665 ng/mL and a half-life [1] of 144 min. The AUC(0-t) (300 mg, fasted, geometric mean, read-out: AUC(0–48)) was 1630 ng·h/mL, the AUC(0-t) (600 mg, Cohort 2, Regimen B, 600 mg, Fasted, geometric mean (geometric CV%), read-out: AUC0-24) was 5660 ng·h/mL and the AUC(0-t) (600 mg, Cohort 2, Regimen B, 600 mg, Fasted, geometric mean (geometric CV%), read-out: AUC0-last) was 4940 ng·h/mL. It also gave an AUC(0-inf) [2] of 5840 ng·h/mL, a Cmax [2] of 1740 ng/mL and a half-life [2] of 300 min. The AUC(0-t) (900 mg, Cohort 3, Regimen C, 900 mg, Fasted, geometric mean (geometric CV%), read-out: AUC0-24) was 6870 ng·h/mL, the AUC(0-t) (900 mg, Cohort 3, Regimen C, 900 mg, Fasted, geometric mean (geometric CV%), read-out: AUC0-last) was 6810 ng·h/mL and the AUC(0-inf) [3] was 6970 ng·h/mL. The Cmax [3] was 2700 ng/mL, the half-life [3] was 198 min and the AUC(0-t) (900 mg, Cohort 3, Regimen D, 900 mg, Fed, geometric mean (geometric CV%), read-out: AUC0-24) was 6250 ng·h/mL. The AUC(0-t) (900 mg, Cohort 3, Regimen D, 900 mg, Fed, geometric mean (geometric CV%), read-out: AUC0-last) was 6130 ng·h/mL, the AUC(0-inf) [4] was 5910 ng·h/mL and the Cmax [4] was 1200 ng/mL. For the same compound, the half-life [4] was 228 min, the AUC(0-t) (2000 mg, Cohort 4, Regimen E, 2000 mg, Fasted, geometric mean (geometric CV%), read-out: AUC0-24) was 18900 ng·h/mL and the AUC(0-t) (2000 mg, Cohort 4, Regimen E, 2000 mg, Fasted, geometric mean (geometric CV%), read-out: AUC0-last) was 19100 ng·h/mL. It also gave an AUC(0-inf) [5] of 19600 ng·h/mL, a Cmax [5] of 4590 ng/mL and a half-life [5] of 360 min. The Tmax (300 mg, Cohort 1, Regimen A, 300 mg oral suspension, Fasted) was 1 h, the Tmax (600 mg, Cohort 2, Regimen B, 600 mg oral suspension, Fasted) was 1 to 2 h and the Tmax (900 mg, Cohort 3, Period 1: Regimen C, 900 mg oral suspension, Fasted) was 1 h. The Tmax (900 mg, Cohort 3, Period 2: Regimen D, 900 mg oral suspension, Fed) was 1 to 8 h, the Tmax (2000 mg, Cohort 4, Regimen E, 2000 mg oral suspension, Fasted) was 1 to 2 h and the “Frel AUC(0- last) (%)” value [6] was 98.4% and 98.4a (16.3) %. The “Frel AUC(0-inf) (%)” value [6] was 101% and 101a (20.3) %, the “Frel AUC(0–24) (%)” value [6] was 99.2% and 99.2a (19.0) % and the “Frel Cmax (%)” value [6] was 48.4% and 48.4a (21.9) %.
